Several values for one entry are separate records, joined by “and”; a condition that tells them apart may be missing. Equal values may be shown once.
What was measured:
[1] = system: conscious rats
Description: The present experiments were performed on male, Sprague-Dawley CFY rats weighing 260-300 g. During a preliminary open-chest surgery we applied a loose silk loop around the left main coronary artery, and then the chest was closed (Leprán et al., 1983). Seven-eight days after the preliminary surgery—after complete recovery and healing—the loose silk loop was tightened to occlude the coronary artery in conscious, freely moving animals. During the first 15 min of myocardial infarction a bipolar ECG was recorded continuously (PowerLab 8SP, ADInstruments, Great Britain).
We followed the survival rate during the acute phase (first 15 min) and during the subsequent 16 hours after coronary artery occlusion. The incidence and duration of arrhythmias in the acute phase were evaluated according to the Lambeth Conventions (Walker et al., 1988), i.e. ventricular fibrillation, ventricular tachycardia, and other types of arrhythmias, including ventricular extrasystoles, bigeminy, and salvos. The size of myocardial infarction was measured in the animals surviving for 16 hours after coronary artery occlusion using nitrotetrazolium-blue dye staining.
Long-term oral pretreatment was applied for 1 month before the coronary artery occlusion. […] Control animals were given the vehicle in a volume of 5 ml/kg.

[2] = system: conscious dogs with structural atrial remodelling; experiment: Chronic rapid atrial pacing induced atrial remodelling and burst-induced atrial fibrillation in conscious dogs
Description: The experiments were performed on chronically instrumented Beagle dogs of both sexes, weighing 12-13 kg. The animals were subjected to the following surgery under general anaesthesia: pacemakers were implanted into bilateral subcutaneous pockets in the neck area (Logos, Karios; Biotronik Hungaria Ltd.) and were attached to pacemaker electrodes implanted into the right ventricle and right atrium. Radiofrequency catheter ablation was performed in each animal to achieve third degree atrioventricular (AV) block so that during subsequent rapid atrial pacing (400/min) the ventricles are protected from high heart rates. […] On the seventh day after surgery, following the measurement of right atrial effective refractory period the atrial pacemaker was set to a frequency of 400/min to achieve atrial electrical and structural remodelling. Right atrial rapid pacing is necessary to maintain for 3 months in this model to obtain complete remodeling of the atria signalled by the reduction of right atrial effective refractory period below 80 ms.
(§1) The body weight of animals was monitored for strict adherence to the desired dose.
(§2) The right atrial effective refractory period (ERP) was measured using the S1 -S2 protocol at cycle lengths of 150 and 300 ms. In addition ERP monitoring, 10-second long burst stimuli were applied at 800/min frequency to induce atrial fibrillation and the incidence of AF, the duration of AF episodes were measured before commencement of oral drug therapy and then after the initiation of therapy every 4 days.

[3] = Cardiac, liver and lung tissue DEA and AMIO levels in dogs with atrial fibrillation and structural atrial remodelling; conditions: for concentration at 4 weeks: both, Beagle, dog, oral, 50 mg/kg/day
Description: as §1, §2
Cardiac tissue drug levels were measured in right atrial, left atrial, right ventricular and left ventricular tissue samples. Following the sacrifice of the animals (the subsequent day after the 4-week treatment), tissue samples were taken before tissue preparations were isolated for in vitro studies.

[4] = system: dog atrial and ventricular tissue; experiment: Atrial and ventricular action potential parameters after chronic oral treatment of non-instrumented dogs; format: in vivo, Beagle dogs; conditions: 500 ms cycle length, 4-week oral DEA 30 or AMIO 45 mg/kg/day
[5] = system: rats; experiment: Chronic 28-day non-GLP toxicology in rats
[6] = Plasma and tissue DEA and AMIO levels in non-instrumented dogs; conditions: 4-week oral AMIO 45 mg/kg/day, individual dogs 1 and 2
[7] = dogs with AF, 4-week oral AMIO 50 mg/kg/day
[8] = dogs with structural atrial remodelling, 4-week oral AMIO 50 mg/kg/day

SMILES: CCCCc1oc2ccccc2c1C(=O)c1cc(I)c(OCCN(CC)CC)c(I)c1 [AMIO, amiodarone]
- Death due to the 1 month treatment ([1]; 1 month oral pretreatment): No death occurred
- Survival rate during the acute phase of experimental myocardial infarction ([1]; 1 month oral pretreatment): significantly improved
- Behavioral changes, body weight increments ([1]; 1 month oral pretreatment, AMIO 30 or 100, DEA 15 or 50 mg/kg/day): Neither AMIO nor DEA produced any behavioral changes of the animals, or in body weight increments
- Arrhythmia score ([1]; first 15 min after coronary artery occlusion, 1 month oral AMIO 100 or DEA 50 mg/kg/day, control 4.77±0.33): 2.05±0.52
- Incidence of ventricular fibrillation ([1]; larger doses (AMIO 100, DEA 50 mg/kg/day), after coronary artery occlusion): significantly decreased
- Mood, behaviour, appetite and body weight ([2]; dogs, 4-week oral, DEA 25, AMIO 50 mg/kg/day): loss of appetite followed by a reduction in body weight
- Lg AF duration, Following 4-week treatment, individual animals ([2]; oral AMIO 50 mg/kg/day, Control (before) 2.59, 3.12, 4.35): 1.35 and 0.88 and 0.12
- AF duration (s), Following 4-week treatment, individual animals ([2]; oral AMIO 50 mg/kg/day, Control (before) 386.5, 1 302.9, 2 2663.7): 22.5 s and 7.5 s and 1.31 s
- ERP, Following 4-week treatment, individual animals ([2]; oral AMIO 50 mg/kg/day, animals 2011/01, 2011/08, 2011/9, Control (before) 90, <80, 80): 100 ms (2×) and 130 ms
- Incidence of AF, Following 4-week treatment, individual animals ([2]; oral AMIO 50 mg/kg/day, burst-induced AF, Control (before) 100%, 90%, 67%): 40% and 10% (2×)
- Lg AF duration, Following 4-week treatment, Mean ± SE ([2]; oral AMIO 50 mg/kg/day, n=3, Control (before) 3.35 ± 0.52): 0.78 ± 0.36
- Incidence of AF, Following 4-week treatment, Mean ± SE ([2]; oral AMIO 50 mg/kg/day, n=3, Control (before) 88.0 ± 10.54): 20.0 ± 10.0 %
- AF duration (s), Following 4-week treatment, Mean ± SE ([2]; oral AMIO 50 mg/kg/day, n=3, Control (before) 8117.7 ± 7277.8): 10.4 ± 6.29 s
- Incidence and duration of atrial fibrillation ([2]; three animals, 4-week oral treatment, DEA 25, AMIO 50 mg/kg/day, accompanied by prolongation of the ERP): showed a decreasing tendency
- Liver and lung tissue concentrations of DEA in chronic AMIO treated dogs compared to chronic DEA treated dogs ([3]; AF model dogs, oral AMIO 50 mg/kg/day vs DEA 25 mg/kg/day): more than three times higher
- concentration at 4 weeks ([3]; left atrium, Left atrium AMIO level, Mean, dogs with AF, 4-week oral AMIO 50 mg/kg/day, n=3): 35200 ng/g
- concentration at 4 weeks ([3]; left atrium, Left atrium AMIO level, individual animals, dogs with AF, 4-week oral AMIO 50 mg/kg/day): 32600 ng/g
- concentration at 4 weeks ([3]; left ventricle, Left ventricle AMIO level, Mean, dogs with AF, 4-week oral AMIO 50 mg/kg/day, n=3): 34400 ng/g
- concentration at 4 weeks ([3]; left ventricle, Left ventricle AMIO level, individual animals, dogs with AF, 4-week oral AMIO 50 mg/kg/day): 36600 ng/g
- concentration at 4 weeks ([3]; right atrium, Right atrium AMIO level, Mean, dogs with AF, 4-week oral AMIO 50 mg/kg/day, n=3): 24600 ng/g
- concentration at 4 weeks ([3]; right ventricle, Right ventricle AMIO level, Mean, dogs with AF, 4-week oral AMIO 50 mg/kg/day, n=3): 34700 ng/g
- concentration at 4 weeks ([3]; right ventricle, Right ventricle AMIO level, individual animals, dogs with AF, 4-week oral AMIO 50 mg/kg/day): 40800 ng/g
- Left atrium AMIO level, individual animals [3, 7]: 39.045 μg/tissue g and 33.89 μg/tissue g
- Left ventricle AMIO level, individual animals [3, 7]: 42.573 μg/tissue g and 24.061 μg/tissue g
- Right atrium AMIO level, individual animals [3, 7]: 47.005 μg/tissue g and 19.936 μg/tissue g and 6.933 μg/tissue g
- Right ventricle AMIO level, individual animals [3, 7]: 37.033 μg/tissue g and 26.349 μg/tissue g
- Liver AMIO level, Mean ± SE [3, 8]: 126.8 ± 41.58 μg/tissue g
- Liver AMIO level, individual animals [3, 8]: 123.961 μg/tissue g and 200.27 μg/tissue g and 56.314 μg/tissue g
- Lung AMIO level, Mean ± SE [3, 8]: 215.1 ± 60.12 μg/tissue g
- Lung AMIO level, individual animals [3, 8]: 312.24 μg/tissue g and 227.793 μg/tissue g and 105.152 μg/tissue g
- Vmax (V/s), Dog atrium ([4]; n = 3, CONTROL 249.7 ± 52.7): 252.9 ± 56.7 V/s
- APD90 (ms), Dog atrium ([4]; n = 4, CONTROL 123.9 ± 9.6): 140.8 ± 12.4 ms
- Hepatic function alterations (total cholesterol, alkaline phosphatase [ALP]) ([5]; 28-day oral AMIO 200 mg/kg/day compared to DEA 100 mg/kg/day): more robust
- Alveolar histiocytosis in the lungs ([5]; 28-day oral AMIO 200 mg/kg/day or DEA 100 mg/kg/day): alveolar histiocytosis was detected
- Detection of the administered drug 14 days after the completion of administration ([5]; 28-day oral AMIO 200 mg/kg/day or DEA 100 mg/kg/day, plasma (DEA: plasma or cardiac tissue)): could be detected in plasma samples
- Increase in body weight following 28-day treatment ([5]; AMIO 200 mg/kg/day or DEA 100 mg/kg/day, normal increase 44 g): 13 g
- Food consumption and appetite ([5]; first 3 weeks of 200 mg/kg/day AMIO, compared to control and 100 mg/kg/day DEA treated animals): reduced
- Kidney AMIO level [6]: 112.173 μg/tissue g
- Left Ventricle AMIO level [6]: 81.928 μg/tissue g
- Liver AMIO level [6]: 177.317 μg/tissue g
- Lung AMIO level [6]: 178.360 μg/tissue g
- Right Atrium AMIO level [6]: 75.854 μg/tissue g and 152.023 μg/tissue g

Reference: patent US20150150842A1, “DESETHYLAMIODARONE COMPOSITIONS” (priority 2012, published 2015)
